# Patent US11192921B2 (priority 2017, dated 2021)
# Values joined by “and” are separate entries in the source; they are usually repeats but may differ in a detail not shown here. Equal entries are not always repeated. Where two headings read alike, the source gives them in different places. Marks after values point to notes of the source that are not given here. No end group written: not given here.
# What was measured:
# male BALB/c mice = assay: cancer-induced pain (CIP) model, thermosensitive test; type: in vivo; conditions: heat radiation stimulation
# Method: Influence of Analgesic Polypeptides on Neuralgia in a Cancer-Induced Pain (CIP) Model
# A number of male BALB/c mice each weighing 25-30 g were used.
# Von Fery monofilament; a microsyringe, 5 mg/mL solutions of polypeptides I, II and II I; normal saline.
# BALB/c mice were taken, and the right sciatic nerve was exposed; ascites containing 5×10^4 Meth A sarcoma cells were injected into the proximal nerve near the sciatic nerve trochanter far from the tendon branch of the posterior biceps, the wound was closed, and the same volume of normal saline was injected into the left side by performing a sham operation.
# 1.3.1 Thermosensitive Test
# On the 4th, 7th, 10th and 14th days after inoculation, the latency of foot lifting caused by heat radiation stimulation to animals was observed, and the heat radiation intensity was adjusted to cause the latency of foot lifting of normal mice to be (10±2) s.
# All data was expressed as M±SD and subjected to one-way ANOVA.
# Kunming mice [1] = type: in vivo
# SD rats = assay: pain threshold of trigeminal nerve (trigeminal neuralgia model); type: in vivo; conditions: for highest pain threshold on the operative side / pain threshold on the opposite side: 3 h after injection; for Pain threshold: intraperitoneal
# Female Kunming mice [2] = tested on: Female Kunming mice
# Female Kunming mice [3] = tested on: Female Kunming mice; remark: listed apart in the source
# Kunming mice [4] = conditions: mouse, in vivo
# Female Kunming mice [5] = tested on: Female Kunming mice; remark: listed apart in the source
# Female Kunming mice [6] = type: in vivo
# [7] = 50 μg/kg, injected subcutaneously
# [8] = 100 μg/kg, injected subcutaneously
sequence,measurement,setting,value
"KCSTPPDAVLYC (cysteine pairing not given here) [Polypeptide III, one pair of disulfide bonds formed between the two cysteines]",Latency of foot lifting before administration,male BALB/c mice; before administration,9.77 ± 1.21
same,Latency (D) of foot lifting after administration,male BALB/c mice; day 4,9.45 ± 1.02
same,Latency (D) of foot lifting after administration,male BALB/c mice; day 7,8.88 ± 0.86
same,Latency (D) of foot lifting after administration,male BALB/c mice; day 10,8.26 ± 1.21
same,Latency (D) of foot lifting after administration,male BALB/c mice; day 14,6.78 ± 1.22
same,Pain threshold (tail flick),Kunming mice [1]; 0 min,2.31 ± 0.22 s
same,Pain threshold (tail flick),Kunming mice [1]; 15 min,2.22 ± 0.21^∧∧ s
same,Pain threshold (tail flick),Kunming mice [1]; 30 min,2.32 ± 0.12 s
same,Pain threshold (tail flick),Kunming mice [1]; 45 min,4.12 ± 0.12^∧ s
same,Pain threshold (tail flick),Kunming mice [1]; 60 min,2.12 ± 0.21 s
same,Pain threshold (tail flick),Kunming mice [1]; 75 min,2.14 ± 0.12 s
same,Pain threshold (tail flick),Kunming mice [1]; 90 min,3.12 ± 0.14 s
same,difference from the normal saline group during a time period (**P<0.01),"Kunming mice [1]; mouse, in vivo",significantly different from the normal saline group
same,animal reaction thresholds,"SD rats; 50 μg/kg and 100 μg/kg, injected subcutaneously",significantly increased
same,time the pain thresholds lasted,SD rats; [7],1 h
same,highest pain threshold on the operative side,SD rats; [7],2.3 ± 0.5 g
same,pain threshold on the opposite side,SD rats; [7],1.2 ± 0.2 g
same,time the effect on the operative side lasted,SD rats; [8],about 8 h
same,highest pain threshold on the operative side,SD rats; [8],7.4 ± 0.9 g
same,pain threshold on the opposite side,SD rats; [8],3.2 ± 1.3 g
same,pain threshold change,"SD rats; 300 μg/kg, subcutaneously",not significantly increased
same,Pain threshold,"SD rats; Dose 50 (μg/kg), 0 h",25.98 ± 0.11 s
same,Pain threshold,"SD rats; Dose 50 (μg/kg), 1 h",26.25 ± 0.46 s
same,Pain threshold,"SD rats; Dose 50 (μg/kg), 2 h",26.69 ± 0.62 s
same,Pain threshold,"SD rats; Dose 50 (μg/kg), 3 h",26.91 ± 0.49 s
same,Pain threshold,"SD rats; Dose 50 (μg/kg), 4 h",27.91 ± 0.26 s
same,Pain threshold,"SD rats; Dose 50 (μg/kg), 5 h",26.91 ± 0.61 s
same,Pain threshold,"SD rats; Dose 100 (μg/kg), 0 h",26.56 ± 0.23 s
same,Pain threshold,"SD rats; Dose 100 (μg/kg), 1 h",27.65 ± 0.61 s
same,Pain threshold,"SD rats; Dose 100 (μg/kg), 2 h",28.16 ± 0.59 s
same,Pain threshold,"SD rats; Dose 100 (μg/kg), 3 h",27.19 ± 0.91 s
same,Pain threshold,"SD rats; Dose 100 (μg/kg), 4 h",28.16 ± 0.61 s
same,Pain threshold,"SD rats; Dose 100 (μg/kg), 5 h",26.16 ± 0.91 s
same,Pain threshold,"SD rats; Dose 300 (μg/kg), 0 h",26.15 ± 0.65 s
same,Pain threshold,"SD rats; Dose 300 (μg/kg), 1 h",31.95 ± 0.56 s
same,Pain threshold,"SD rats; Dose 300 (μg/kg), 2 h",30.21 ± 0.64 s
same,Pain threshold,"SD rats; Dose 300 (μg/kg), 3 h",29.91 ± 0.61 s
same,Pain threshold,"SD rats; Dose 300 (μg/kg), 4 h",28.85 ± 0.41 s
same,Pain threshold,"SD rats; Dose 300 (μg/kg), 5 h",27.92 ± 0.61 s
same,Duration of the immobility of mice in tail suspension tests,Female Kunming mice [2]; 1 h,20.12 ± 1.28 s
same,Duration of the immobility of mice in tail suspension tests,Female Kunming mice [2]; 24 h,19.23 ± 1.84 s
same,Duration of the immobility of mice in tail suspension tests,Female Kunming mice [2]; Time 0,19.28 ± 1.02 s
same,data of tail suspension test compared with the normal saline group,"Female Kunming mice [2]; mouse, in vivo, ip",no significant difference
same,toxic side effects compared with the conotoxin (tail suspension),"Female Kunming mice [2]; mouse, in vivo, ip",lower toxic side effects
same,Movement distances of mice in open field tests,Female Kunming mice [3]; 1 h,18.27 ± 1.22^
same,Movement distances of mice in the center area in open field tests,Female Kunming mice [3]; 1 h,18.57 ± 1.22^
same,Movement distances of mice in the peripheral area in open field tests,Female Kunming mice [3]; 1 h,19.47 ± 1.32^
same,Number of entrances to the center area in open field tests,Female Kunming mice [3]; 1 h,18.47 ± 0.32^
same,Number of entrances to the peripheral area in open field tests,Female Kunming mice [3]; 1 h,18.57 ± 1.42^
same,Residence time in the center area in open field tests,Female Kunming mice [3]; 1 h,18.37 ± 1.22^ s
same,Residence time in the peripheral area in open field tests,Female Kunming mice [3]; 1 h,14.27 ± 1.34^ s
same,Movement distances of mice in open field tests,Female Kunming mice [3]; 24 h,19.13 ± 2.38 m
same,Movement distances of mice in the center area in open field tests,Female Kunming mice [3]; 24 h,18.13 ±1.38 m
same,Movement distances of mice in the peripheral area in open field tests,Female Kunming mice [3]; 24 h,19.03 ± 2.48 m
same,Number of entrances to the center area in open field tests,Female Kunming mice [3]; 24 h,18.23 ± 1.48
same,Number of entrances to the peripheral area in open field tests,Female Kunming mice [3]; 24 h,17.13 ± 2.18
same,Residence time in the center area in open field tests,Female Kunming mice [3]; 24 h,18.13 ± 1.38 s
same,Residence time in the peripheral area in open field tests,Female Kunming mice [3]; 24 h,18.13 ± 1.45 s
same,Movement distances of mice in open field tests,Female Kunming mice [3]; Time 0,21.28 ± 1.28 m
same,Movement distances of mice in the center area in open field tests,Female Kunming mice [3]; Time 0,21.88 ±1.18 m
same,Movement distances of mice in the peripheral area in open field tests,Female Kunming mice [3]; Time 0,20.98 ± 1.28 m
same,Number of entrances to the center area in open field tests,Female Kunming mice [3]; Time 0,21.28 ± 1.28
same,Number of entrances to the peripheral area in open field tests,Female Kunming mice [3]; Time 0,21.28 ± 1.38
same,Residence time in the center area in open field tests,Female Kunming mice [3]; Time 0,21.78 ± 1.17 s
same,Residence time in the peripheral area in open field tests,Female Kunming mice [3]; Time 0,21.88 ± 1.38 s
same,side effects compared with conotoxin (open field),"Female Kunming mice [3]; mouse, in vivo, ip",lower side effects
same,various indexes in open field experiments compared with the normal saline group,"Female Kunming mice [3]; mouse, in vivo, ip",no significant difference
same,analgesic effects in formalin-induced pain experiments,Kunming mice [4],good analgesic effects
same,"cumulative foot licking time, Phase I",Kunming mice [4],47.19 ± 10.21*^
same,"cumulative foot licking time, Phase II",Kunming mice [4],41.23 ± 13.21
same,Movement duration of mice in forced swimming tests,Female Kunming mice [5]; 1 h,18.57 ± 1.21^ s
same,Movement duration of mice in forced swimming tests,Female Kunming mice [5]; 24 h,17.13 ± 1.23 s
same,Movement duration of mice in forced swimming tests,Female Kunming mice [5]; Time 0,21.40 ± 1.38 s
same,toxic side effects compared with the conotoxin (forced swimming),"Female Kunming mice [5]; mouse, in vivo, ip",lower toxic side effects
same,Pain threshold,Female Kunming mice [6]; 0 min,29.22 ± 0.11 s
same,Pain threshold,"Female Kunming mice [6]; mouse, in vivo, ip",31.22 ± 0.42^∧∧ s and 33.12 ± 0.32*^∧ s and 27.23 ± 0.42^∧ s and 21.49 ± 0.45^∧ s and 32.14 ± 0.42 s and 21.43 ± 0.24 s
same,heat thresholds of mice compared with the normal saline negative control group,"Female Kunming mice [6]; mouse, in vivo, ip",effectively increase the heat thresholds of mice
